Measured values taken from patent publication US5118681A (priority 1989, dated 1992).
In brackets after ≈: the same amount, converted by molar mass.

Tests used:
[1] = system: Candida albicans (C.alb); test: Minimum Inhibitory Concentration Test, alternate (Table 4), C.alb; format: cell-based; details: Candida albicans, TSB, 72 hours
Experimental: (§1) A 125 μl aliquot of 10,000 ppm test compound in acetone was added to 4.88 ml of TSB to provide a 250 ppm solution. From this solution, 100 μL was transferred to the first row of two microtiter plate columns. Both replicates and five additional compounds were all serially diluted 1:1 to a final concentration of 0.8 ppm in TSB.
(§2) Inoculation was accomplished by diluting a 24 hr Ps fl culture, four mls per 36 mls of phosphate buffer solution. A Dynatech autoinoculator was used to transfer 1.5 μl of this cell suspension to the microtiter plates. The plates were incubated at 30° C. for 3 days before the lowest concentration at which no growth occurs was recorded in the database. The SOK data and MIC test data on Ps.fl, Ps.ae, E.c, and S.a. bacteria and Candida albicans (C.alb), A.n and A.p fungi are listed in Table 4.

[2] = system: Pseudomonas fluorescens; test: Minimum Inhibitory Concentration Test, alternate (Table 4), Ps.fl; format: cell-based; details: Pseudomonas fluorescens, TSB, 72 hours, 30° C
Experimental: as §1, §2

[3] = system: Puccinia recondita (f. sp. tritici Races PKB and PLD); test: whole plant or invertebrate; format: in vivo; details: Puccinia recondita, 240 h; read-out: % control WLR
[4] = system: Pseudoperonospora cubensis; test: whole plant or invertebrate; format: in vivo; details: Pseudoperonospora cubensis, in Cucumis sativus, 168 h; read-out: % control CDM
[5] = system: Ps.ae; test: Minimum Inhibitory Concentration Test, alternate (Table 4), Ps.ae; format: cell-based, Pseudomonas aerugenosa; details: Pseudomonas, TSB, 72 hours
[6] = system: Pellicularia filamentosa (f. sp. sasiki); test: whole plant or invertebrate; format: in vivo; details: 120 h; read-out: % control RSB
[7] = system: A.n; test: Minimum Inhibitory Concentration Test, alternate (Table 4), A.n; format: cell-based, Aspergillus niger; details: Aspergillus niger, TSB, 72 hours
Experimental: as §1, §2

[8] = system: A.p; test: Minimum Inhibitory Concentration Test, alternate (Table 4), A.p; format: cell-based; details: Aureobasidium pullulans, TSB, 72 hours
Experimental: as §1, §2

[9] = system: Phytophthora infestans; test: whole plant or invertebrate; format: in vivo; details: Phytophthora infestans, in Solanum lycopersicum, 96 h, read-out: % control TLB
[10] = system: E.c; test: Minimum Inhibitory Concentration Test, alternate (Table 4), E.c; format: cell-based, Escherichia coli; details: Escherichia coli, TSB, 72 hours
Experimental: as §1, §2

[11] = system: Erysiphe graminis (f. sp. tritici); test: whole plant or invertebrate; format: in vivo; details: Blumeria graminis; read-out: % control WPM
[12] = system: Piricularia oryzae; test: whole plant or invertebrate; format: in vivo; details: Pyricularia oryzae, read-out: % control RB
[13] = system: S.a; test: Minimum Inhibitory Concentration Test, alternate (Table 4), S.a; format: cell-based, Staphylococcus aureus; details: Staphylococcus aureus, TSB, 72 hours
Experimental: as §1, §2

Structure (SMILES) | MIC [1] | MIC [2] | pest or weed control at 200 ppm [3] | pest or weed control at 200 ppm [4] | MIC [5] | pest or weed control at 200 ppm [6] | MIC [7] | MIC [8] | pest or weed control at 200 ppm [9] | MIC [10] | pest or weed control at 200 ppm [11] | pest or weed control at 200 ppm [12] | MIC [13] | pest or weed control at 100 ppm [3] | pest or weed control at 100 ppm [4] | pest or weed control at 100 ppm [6] | pest or weed control at 100 ppm [9] | pest or weed control at 100 ppm [11] | pest or weed control at 100 ppm [12]
CCCCCCCCNC(=O)/C=C\SC(C(C)=O)C(=O)Nc1ccccc1OC (stereo not drawn) [Example 30, N-n-octyl-cis-3-{2-[N-(2-methoxyphenyl)acetoacetamido]thio}acrylamide] | 8 µg/mL (≈ 19 µM) | > 500 µg/mL | 0% | 100% | 500 µg/mL (≈ 1190 µM) | 0% | 31 to 63 µg/mL (≈ 73.7 to 150 µM) | 250 µg/mL (≈ 594 µM) | 80% | > 500 µg/mL | 0% | 90% | > 500 µg/mL |  |  |  |  |  | 
CCCCCCCCNC(=O)/C=C\SC(C(=O)Nc1ccc(Cl)c([N+](=O)[O-])c1)C(=O)OCC (stereo not drawn) [Example 48, N-n-octyl-cis-3-{2-[ethyl-N-(3-nitro-4-chlorophenyl)malonamido]thio}acrylamide] | 31 µg/mL (≈ 62 µM) | > 250 µg/mL |  |  | > 250 µg/mL |  | 4 to 31 µg/mL (≈ 8 to 62 µM) | < 2 µg/mL |  | > 250 µg/mL |  |  | > 250 µg/mL | 50% | 99% | 0% | 99% | 0% | 0%
CCCCCCCCNC(=O)/C=C\SC(C(C)=O)C(=O)NCc1ccccc1 (stereo not drawn) [Example 12, N-n-octyl-cis-3-[2-(N-benzylacetoacetamideo)thio]acrylamide] | 16 µg/mL (≈ 39.5 µM) | 125 to 500 µg/mL (≈ 309 to 1240 µM) | 75% | 100% | > 500 µg/mL | 25% | 4 to 16 µg/mL (≈ 9.89 to 39.5 µM) | 8 µg/mL (≈ 19.8 µM) |  | > 500 µg/mL | 75% | 75% | > 500 µg/mL |  |  |  | 100% |  | 
CCCCCCCCNC(=O)/C=C\SC(C(=O)NC1CC1)C(=O)OCC (stereo not drawn) [Example 36, N-n-octyl-cis-3-[2-(ethyl-N-cyclopropylmalonamido)thio]acrylamide] | 31 µg/mL (≈ 80.6 µM) | 500 µg/mL (≈ 1300 µM) |  |  | > 250 µg/mL |  | 8 to 16 µg/mL (≈ 20.8 to 41.6 µM) | < 2 µg/mL |  | > 250 µg/mL |  |  | 125 µg/mL (≈ 325 µM) | 50% | 100% | 0% | 47% | 0% | 90%
CCCCCCCCNC(=O)/C=C\SC(C(=O)NN1CCOCC1)C(=O)OCC (stereo not drawn) [Example 63, N-n-octyl-cis-3-{2-[ethyl-N-(4-morpholino)malonamido]thio}acrylamide] | < 2 µg/mL | > 250 µg/mL |  |  | > 250 µg/mL |  | 2 to 16 µg/mL (≈ 4.66 to 37.2 µM) | < 2 µg/mL |  | 250 µg/mL (≈ 582 µM) |  |  | 31 µg/mL (≈ 72.2 µM) | 0% | 99% | 0% | 0% | 0% | 0%
CCCCCCCCNC(=O)/C=C\SC(C(C)=O)C(=O)OCC (stereo not drawn) [Example 11, N-n-octyl-cis-3-[2-(ethoxy-3-oxobutanoyl)thio]acrylamide] | < 4 µg/mL | 250 to 500 µg/mL (≈ 728 to 1460 µM) | 50% | 85% | > 500 µg/mL | 0% | 4 to 8 µg/mL (≈ 11.6 to 23.3 µM) | < 4 µg/mL | 0% | > 500 µg/mL | 50% | 0% | > 500 µg/mL |  |  |  |  |  | 
CCCCCCCCNC(=O)/C=C\SC(C(C)=O)C(=O)Nc1ccc(OC)cc1 (stereo not drawn) [Example 47, N-n-octyl-cis-3-{2-[N-(4-methoxyphenyl)acetoacetamido]thio}acrylamide] | 4 µg/mL (≈ 9.51 µM) | > 250 µg/mL |  |  | > 250 µg/mL |  | 4 to 16 µg/mL (≈ 9.51 to 38 µM) | < 2 µg/mL |  | > 250 µg/mL |  |  | 31 µg/mL (≈ 73.7 µM) | 0% | 100% | 0% | 80% | 0% | 0%
